Consider 12 compounds from PubChem BioAssay (NCI).

Test systems include SK-MEL-28 melanoma; NCI-H226 lung; SNB-75 CNS; MOLT-4 leukemia; DU-145 prostate; OVCAR-5 ovarian; COLO 205 colon; HT29 colon; OVCAR-8 ovarian; SK-MEL-5 melanoma.
Common to all, as to assay: growth of human tumour cells (NCI), 48 h

Each structure is given as a SMILES string. Where “and” joins values, the source holds several entries; their conditions need not be identical. Equal values may be shown once.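 Following 48 hours of exposure in 96-well plates, responses at five concentrations were used to interpolate endpoints linearly. GI50 marks 50% less growth. TGI denotes the concentration required for complete inhibition of growth.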

Consider `Cc1c(N)nc(C2CC(=O)N2CC(N)C(N)=O)nc1C(=O)NC(C(=O)NC(C)C(O)C(C)C(=O)NC(C(=O)NCCc1nc(-c2nc(C(=O)NCCNCC(C)O)cs2)cs1)C(C)O)C(OC1OC(CO)C(O)C(O)C1OC1OC(CO)C(O)C(OC(N)=O)C1O)c1cnc[nH]1` (stereo unspecified), for which the GI50 is more than 50 µM in the assay with SK-MEL-28 melanoma; 3.06 µM in the assay with SNB-75 CNS; 4.23 µM in the assay on MOLT-4 leukemia; 9.82 µM with OVCAR-5 ovarian; 33.6 µM in the assay with COLO 205 colon; 33.1 µM in the assay with HT29 colon. Besides, the GI50 was 6.97 µM in the assay with OVCAR-8 ovarian and 0.644 µM with SK-MEL-5 melanoma. Also, the TGI with SK-MEL-28 melanoma was more than 100 µM; with NCI-H226 lung, 0.261 µM; in the assay on SNB-75 CNS, 23.9 µM and 6.66 µM; with MOLT-4 leukemia, 50 µM and 6.66 µM; in the assay on DU-145 prostate, 37.6 µM; in the assay on OVCAR-5 ovarian it was 50 µM and 57.4 µM. For the same compound, the TGI was 50 µM and 36.6 µM in the assay with COLO 205 colon; 50 µM and > 100 µM in the assay on HT29 colon; 50 µM and > 100 µM in the assay with OVCAR-8 ovarian; 11.6 µM and 17.9 µM in the assay with SK-MEL-5 melanoma.
As to `O=C1OC(c2ccccc2)=N/C1=C\c1ccc(N(CCCl)CCCl)cc1`, the TGI with SK-MEL-28 melanoma was more than 100 µM; in the assay on NCI-H226 lung, more than 100 µM; in the assay on SNB-75 CNS, more than 100 µM; in the assay with MOLT-4 leukemia, more than 79.9 µM; in the assay with DU-145 prostate it was more than 100 µM; in the assay on OVCAR-5 ovarian, more than 100 µM. Besides, the TGI with COLO 205 colon, with HT29 colon, in the assay with OVCAR-8 ovarian and with SK-MEL-5 melanoma was more than 100 µM in each case.
On to `c1csc(-c2[nH]nc3c2CCc2ccccc2-3)c1`, for which the GI50 in the assay with SK-MEL-28 melanoma was 19.2 µM; in the assay with NCI-H226 lung, 13.5 µM; with SNB-75 CNS, 4.25 µM; with MOLT-4 leukemia, 14.9 µM; in the assay on DU-145 prostate, 23.4 µM; with OVCAR-5 ovarian, 0.959 µM. For the same compound, the GI50 was 0.766 µM in the assay with COLO 205 colon, 15.6 µM in the assay with HT29 colon, 18.7 µM with OVCAR-8 ovarian and 13 µM in the assay with SK-MEL-5 melanoma. For the same compound, the TGI stood at 39.7 µM in the assay with SK-MEL-28 melanoma; 42.2 µM in the assay with NCI-H226 lung; 35 µM with SNB-75 CNS; 53.8 µM with MOLT-4 leukemia; 71.3 µM with DU-145 prostate; 32.4 µM with OVCAR-5 ovarian. Further, the TGI was 8.17 µM in the assay with COLO 205 colon, 42.6 µM in the assay on HT29 colon, 56.8 µM with OVCAR-8 ovarian and 26 µM with SK-MEL-5 melanoma.
In the case of `O=C1C(=O)c2c(ccc3ccccc23)-c2ccccc21`, the GI50 in the assay on SK-MEL-28 melanoma is 1.73 µM; in the assay on NCI-H226 lung it was 2.02 µM; in the assay on SNB-75 CNS it was 1.83 µM; with MOLT-4 leukemia, 2.37 µM; in the assay with DU-145 prostate, 1.4 µM; in the assay with OVCAR-5 ovarian it was 2.54 µM. The GI50 with COLO 205 colon was 2.24 µM; in the assay on HT29 colon it was 2.52 µM; in the assay with OVCAR-8 ovarian, 2.11 µM; in the assay with SK-MEL-5 melanoma it was 1.5 µM. Also, the TGI in the assay on SK-MEL-28 melanoma was 3.67 µM; with NCI-H226 lung it was 5.02 µM; in the assay on SNB-75 CNS, 4.03 µM; with MOLT-4 leukemia it was 6.83 µM; in the assay on DU-145 prostate, 2.73 µM; with OVCAR-5 ovarian it was 7.45 µM. Besides, the TGI was 6.55 µM in the assay with COLO 205 colon, 6.21 µM in the assay with HT29 colon, 7.98 µM in the assay on OVCAR-8 ovarian and 2.82 µM in the assay on SK-MEL-5 melanoma.
As for `CC(=O)OC1CCC2(C)C(=CCC3C4CC(CN5CC5)C(=O)C4(C)CCC32)C1` (stereo unspecified), the GI50 was 13.5 µM in the assay with SK-MEL-28 melanoma; 14.8 µM with NCI-H226 lung; 10.8 µM with SNB-75 CNS; 3.1 µM in the assay with MOLT-4 leukemia; 8.29 µM in the assay on DU-145 prostate; 17.3 µM with OVCAR-5 ovarian. Besides, the GI50 is 3.71 µM in the assay with COLO 205 colon, 3.39 µM in the assay on HT29 colon, 12.2 µM with OVCAR-8 ovarian and 12.7 µM with SK-MEL-5 melanoma. The TGI in the assay with SK-MEL-28 melanoma amounted to 27.3 µM; in the assay with NCI-H226 lung, 40.2 µM; in the assay on SNB-75 CNS, 22.7 µM; with MOLT-4 leukemia it was 8.3 µM; with DU-145 prostate it was 20.4 µM; in the assay on OVCAR-5 ovarian it was 33.2 µM. Besides, the TGI in the assay on COLO 205 colon was determined as 12 µM; in the assay on HT29 colon it was 12.6 µM; in the assay with OVCAR-8 ovarian it was 26.2 µM; with SK-MEL-5 melanoma, 25.9 µM.
As to `Cc1cccc(Cc2cnc(NC(=O)CCCOc3ccc(Cl)cc3)s2)c1`, the GI50 with SK-MEL-28 melanoma is 37.2 µM; in the assay with NCI-H226 lung, 59.3 µM; in the assay on SNB-75 CNS, 2.66 µM; in the assay on MOLT-4 leukemia it was 5.72 µM; with DU-145 prostate, 3.91 µM; in the assay on OVCAR-5 ovarian, 5.88 µM. Also, the GI50 in the assay with COLO 205 colon is 4.46 µM; with HT29 colon it was 3.49 µM; with OVCAR-8 ovarian, 27.3 µM; in the assay with SK-MEL-5 melanoma, 3.69 µM. For the same compound, the TGI with SK-MEL-28 melanoma, in the assay with NCI-H226 lung, in the assay on SNB-75 CNS, with MOLT-4 leukemia, with DU-145 prostate and with OVCAR-5 ovarian was more than 100 µM in each case. Moreover, the TGI in the assay with COLO 205 colon, in the assay with HT29 colon, in the assay with OVCAR-8 ovarian and with SK-MEL-5 melanoma was more than 100 µM throughout.
Consider `COc1cccc2c(Nc3ccc(C(=O)NCCN4CCNCC4)cc3)cc(-c3ccccc3)nc12`, for which the GI50 was 19 µM in the assay on SK-MEL-28 melanoma; more than 100 µM in the assay with NCI-H226 lung; 33.2 µM in the assay on SNB-75 CNS; 30.6 µM in the assay with MOLT-4 leukemia; 71 µM in the assay on DU-145 prostate; more than 100 µM with OVCAR-5 ovarian. In addition, the GI50 in the assay on COLO 205 colon was 19.7 µM; in the assay with HT29 colon, 20.7 µM; with OVCAR-8 ovarian it was 39.2 µM; in the assay with SK-MEL-5 melanoma, 31 µM. Further, the TGI in the assay on SK-MEL-28 melanoma was 64.7 µM; in the assay on NCI-H226 lung, more than 100 µM; with SNB-75 CNS, more than 100 µM; with MOLT-4 leukemia, more than 100 µM; in the assay on DU-145 prostate, more than 100 µM; in the assay with OVCAR-5 ovarian it was more than 100 µM. In addition, the TGI was 56.1 µM with COLO 205 colon, more than 100 µM in the assay with HT29 colon, more than 100 µM in the assay with OVCAR-8 ovarian and more than 100 µM with SK-MEL-5 melanoma.
For `O=C(Nc1cccc(C(F)(F)F)c1)Nc1cc(S(=O)(=O)NC2CC2)ccc1-c1ccsc1`, the GI50 was 5.1 µM in the assay on SK-MEL-28 melanoma; 4.82 µM in the assay with NCI-H226 lung; 3.45 µM in the assay with SNB-75 CNS; 3.02 µM in the assay with MOLT-4 leukemia; 5.41 µM with DU-145 prostate; 5.96 µM in the assay with OVCAR-5 ovarian. The GI50 was 2.71 µM with COLO 205 colon, 4.25 µM with HT29 colon, 4.07 µM in the assay with OVCAR-8 ovarian and 2.31 µM with SK-MEL-5 melanoma. Moreover, the TGI in the assay with SK-MEL-28 melanoma was 18.5 µM; in the assay with NCI-H226 lung, 19 µM; in the assay with SNB-75 CNS, 16.4 µM; with MOLT-4 leukemia it was 9.53 µM; in the assay on DU-145 prostate, 20.3 µM; in the assay on OVCAR-5 ovarian it was 20.2 µM. Further, the TGI in the assay with COLO 205 colon was found to be 7.41 µM; in the assay with HT29 colon it was 16.1 µM; in the assay with OVCAR-8 ovarian it was 18.1 µM; in the assay on SK-MEL-5 melanoma, 5.65 µM.
On to `COC(=O)/C(=C/c1ccc(OC)cc1)c1cc(OC)c(OC)c(OC)c1`, for which the TGI in the assay on SK-MEL-28 melanoma was more than 100 µM; in the assay on NCI-H226 lung, 42.3 µM; in the assay on SNB-75 CNS, 5.77 µM; in the assay on MOLT-4 leukemia, more than 97.5 µM; in the assay with DU-145 prostate, 8.56 µM; with OVCAR-5 ovarian it was more than 100 µM. Also, the TGI is 13.7 µM in the assay with COLO 205 colon, more than 74.9 µM in the assay with HT29 colon, more than 100 µM in the assay on OVCAR-8 ovarian and more than 39.3 µM in the assay with SK-MEL-5 melanoma.
As for `Oc1ccc(/C=N/Nc2nnc(N/N=C/c3ccc(O)cc3O)c3ccccc23)c(O)c1`, the GI50 in the assay with SK-MEL-28 melanoma is 0.552 µM; in the assay on NCI-H226 lung it was 1.92 µM; in the assay on SNB-75 CNS it was 0.361 µM; in the assay with MOLT-4 leukemia it was 0.432 µM; in the assay on DU-145 prostate, 0.432 µM; in the assay on OVCAR-5 ovarian, 1.36 µM. The GI50 was 0.897 µM with COLO 205 colon, 1.76 µM in the assay with HT29 colon, 0.494 µM with OVCAR-8 ovarian and 0.413 µM in the assay with SK-MEL-5 melanoma. Further, the TGI in the assay with SK-MEL-28 melanoma was 5.26 µM; with NCI-H226 lung, 6.98 µM; in the assay with SNB-75 CNS, 1.44 µM; in the assay on DU-145 prostate it was 0.831 µM and 5.99 µM; with OVCAR-5 ovarian it was 15.8 µM; with COLO 205 colon, 2.96 µM. Also, the TGI with HT29 colon was 7.2 µM; in the assay with SK-MEL-5 melanoma, 0.744 µM and 3.19 µM.
`COc1ccc(S(=O)(=O)NCCCNc2nccc(-c3c(-c4ccc(F)cc4)nc4sccn34)n2)cc1`: the GI50 with SK-MEL-28 melanoma is 9.5 µM; with NCI-H226 lung, 6.06 µM; with SNB-75 CNS it was 1.56 µM; in the assay with MOLT-4 leukemia, 5.7 µM; in the assay on DU-145 prostate, 7.14 µM; in the assay with OVCAR-5 ovarian, 32.7 µM. In addition, the GI50 in the assay on COLO 205 colon is 5.58 µM; in the assay with HT29 colon, 2.84 µM; in the assay with OVCAR-8 ovarian, 4.3 µM; in the assay on SK-MEL-5 melanoma, 5.49 µM. Further, the TGI is more than 100 µM with SK-MEL-28 melanoma; more than 100 µM in the assay on NCI-H226 lung; 7.41 µM with SNB-75 CNS; more than 100 µM with MOLT-4 leukemia; more than 100 µM in the assay on DU-145 prostate; more than 100 µM in the assay on OVCAR-5 ovarian. Also, the TGI in the assay with COLO 205 colon is 73.9 µM; in the assay with HT29 colon, 20.2 µM; in the assay with OVCAR-8 ovarian, more than 100 µM; in the assay with SK-MEL-5 melanoma, 74.9 µM.
In the case of `OCCn1c(-c2ccncc2)c(-c2ccc(F)cc2)c2ncccc21`, the GI50 with SK-MEL-28 melanoma, with NCI-H226 lung, with SNB-75 CNS, in the assay with MOLT-4 leukemia, with DU-145 prostate and in the assay with OVCAR-5 ovarian was more than 25 µM in each case. The GI50 with COLO 205 colon, with HT29 colon, with OVCAR-8 ovarian and with SK-MEL-5 melanoma was more than 25 µM each time. The TGI with SK-MEL-28 melanoma, with NCI-H226 lung, in the assay on SNB-75 CNS, with MOLT-4 leukemia, with DU-145 prostate and in the assay with OVCAR-5 ovarian was more than 25 µM throughout. Also, the TGI with COLO 205 colon, with HT29 colon, with OVCAR-8 ovarian and with SK-MEL-5 melanoma was more than 25 µM throughout.
